Reference: publication PMC12797170, “Potent Competitive Inhibitors of Ecto-5′-nucleotidase (CD73) based on 6‑(Het)aryl-7-deazapurine Ribonucleoside 5′‑O‑Bisphosphonates” (ACS Pharmacology & Translational Science, 2025)
≈ marks a conversion by molar mass, not a printed value. Read-outs that look alike come from different tables or passages of the source.

How the values were obtained:
[1] = Microsomal stability assay, human liver microsomes; format: in vitro ADME; conditions: for Mics (hu) comp remaining 60 min: 10 μM; for microsomal CLint at 10 µM: pooled liver microsomes, pH 7.4, read-out: Mics (hu) CLint
[2] = In vivo pharmacokinetic study, intravenous; design: species or system male CD-1 mice; conditions: plasma, 1 mg/kg; for half-life: footnote: t1/2 stability in plasma, text: half-life in mouse PK
Procedure: The pharmacokinetic study was performed by Bienta (Enamine Biology Services) using male CD-1 mice (3 animals, 9 weeks old, body weight ranging from 29.2 to 33.7 g) following intravenous administration. Levels of the test compound were determined by LC-MS/MS in blood plasma over time (seven sampling time points: 5, 15, 30, 60, 120, 240, and 480 min) after a single dose.
Animal treatment and samples preparation were conducted by the Animal Laboratory personnel at Enamine/Bienta.

in vitro [3] = conditions: human, plasma
[4] = molecular target: T1, recombinant human CD73 (hCD73) (Homo sapiens, UniProt P21589); test: CD73 activity assay on recombinant human CD73; format: biochemical; conditions: ΔGexp = RT ln Ki
T1 sequence (P21589 27-574): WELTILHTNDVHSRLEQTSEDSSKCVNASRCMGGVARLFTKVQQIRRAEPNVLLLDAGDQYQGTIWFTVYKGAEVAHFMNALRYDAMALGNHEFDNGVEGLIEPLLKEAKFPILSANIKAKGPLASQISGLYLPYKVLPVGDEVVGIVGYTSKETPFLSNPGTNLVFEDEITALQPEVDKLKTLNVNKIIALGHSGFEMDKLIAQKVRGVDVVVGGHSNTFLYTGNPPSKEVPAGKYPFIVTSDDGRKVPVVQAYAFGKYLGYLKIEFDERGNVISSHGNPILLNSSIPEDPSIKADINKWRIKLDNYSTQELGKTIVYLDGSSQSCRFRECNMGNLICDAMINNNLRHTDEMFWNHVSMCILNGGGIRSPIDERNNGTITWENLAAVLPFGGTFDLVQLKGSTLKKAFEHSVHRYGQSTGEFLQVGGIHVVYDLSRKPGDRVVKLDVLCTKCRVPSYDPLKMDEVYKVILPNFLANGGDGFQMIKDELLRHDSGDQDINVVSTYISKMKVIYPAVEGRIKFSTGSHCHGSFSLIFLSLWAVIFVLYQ

in vitro [5] = conditions: mouse, plasma
[6] = Plasma protein binding, equilibrium dialysis, human plasma; format: in vitro ADME; conditions: undiluted plasma
[7] = Plasma protein binding, mouse plasma; format: in vitro ADME; conditions: mouse, plasma
[8] = Kinetic solubility in PBS; format: physicochemical; conditions: phosphate-buffered saline, pH 7.4, aqueous buffer, kinetic from dmso stock
In short: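 Echo-MS quantitation with calibration from 0.05 to 4 μM, after 1:99 dilution of filtrate into 50% acetonitrile. Filtrate came from a 100 μM PBS (pH 7.4) solution equilibrated 2 h at room temperature with shaking, in duplicate.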

HeLa S3 = test: In vitro cytotoxic activity; format: cell-based; conditions: Homo sapiens
Procedure: (§1) All the compounds were also tested for their in vitro cytotoxic activity on a small panel of four cancer cell lines (CCRF-CEM, HepG2, HeLa S3, HL-60) and nonmalignant human dermal fibroblasts (NHDF).

[9] = tested on: nonmalignant human dermal fibroblasts (NHDF); test: In vitro cytotoxic activity; format: cell-based
Procedure: as §1

HepG2 = test: In vitro cytotoxic activity; format: cell-based; conditions: Homo sapiens
Procedure: as §1

CCRF-CEM = test: In vitro cytotoxic activity; format: cell-based; conditions: Homo sapiens
Procedure: as §1

HL-60 = test: In vitro cytotoxic activity; format: cell-based; conditions: Homo sapiens
Procedure: as §1

[10] = Microsomal stability assay, mouse liver microsomes; format: in vitro ADME; conditions: for Mics (m) comp remaining 60 min: 10 μM; for microsomal CLint at 10 µM: pooled liver microsomes, pH 7.4, read-out: Mics (m) CLint
[11] = male, CD-1, mouse, iv, intravenous
[12] = mouse, male CD-1 mice, intravenous, single dose, read-out: Cl (obs), observed clearance
[13] = human plasma protein binding, read-out: PPB (hu) (converted)
[14] = Tables 2 and 4, mouse plasma, read-out: fup, fraction unbound in mouse plasma
[15] = mouse plasma protein binding, read-out: PPB (m) (converted)
[16] = Tables 1 and 3, human plasma as printed in footnote, read-out: fup, fraction unbound in human plasma

| SMILES | Mics (hu) comp remaining 60 min [1] [%] | microsomal CLint at 10 µM [1] [µL/min/mg] | half-life [2, 11] [h] | clearance [2, 12] [mL/min/kg] | half-life at 10 µM (in vitro [3]) [h] | dG_exp, experimental binding free energy [4] | half-life at 10 µM (in vitro [5]) [h] | fraction unbound at 4 h, 100 µM [6, 13] | fraction unbound at 4 h, 100 µM [7, 14] | fraction unbound at 4 h, 100 µM [7, 15] | solubility at 2 h [8] [µM] | Mics (m) comp remaining 60 min [10] [%] | microsomal CLint at 10 µM [10] [µL/min/mg] | clearance ([2]; male, CD-1, mouse, iv, in vivo PK in mice, unit inferred, read-out: clearance) [mL/min/kg] | fraction unbound at 4 h, 100 µM [6, 16] | IC50 (HeLa S3) [µM] | IC50 [9] [µM] | IC50 (HepG2) [µM] | IC50 (CCRF-CEM) [µM] | IC50 (HL-60) [µM] |
| --- | --- | --- | --- | --- | --- | --- | --- | --- | --- | --- | --- | --- | --- | --- | --- | --- | --- | --- | --- | --- |
| O=P(O)(O)CP(=O)(O)OC[C@H]1O[C@@H](n2ccc3c(-c4ccco4)nc(Cl)nc32)[C@H](O)[C@@H]1O [7B.1, [(5-{[2-Chloro-4-(furan-2-yl)-7H-pyrrolo[2,3-d]pyrimidin-7-yl]-β-D-ribofuranosyl}oxy)phosphonomethyl]phosphonic Acid] | 98 | 2 | 0.105 | 8.3 | > 2 | –15.2 kcal/mol | > 2 | 0.098 | 0.92 | 0.818 | > 100 | 106 | < 1 | – | – | > 10 | > 10 | > 10 | 8.8 | 5.6 |
| O=P(O)(O)CP(=O)(O)OC[C@H]1O[C@@H](n2ccc3c(-c4cccc5c4CCCC5)ncnc32)[C@H](O)[C@@H]1O [4A.12] | 96 | 1 | 2.17 | – | > 2 | –15.1 kcal/mol | > 2 | 0.073 | – | 0.381 | 94 (≈ 50.7 µg/mL) | 100 | < 1 | 2.1 | 0.38 | > 10 | > 10 | > 10 | > 10 | > 10 |
| O=P(O)(O)CP(=O)(O)OC[C@H]1O[C@@H](n2ccc3c(-c4ccc5cc(F)ccc5c4)nc(Cl)nc32)[C@H](O)[C@@H]1O [7B.25] | 108 | < 2 | 0.283 | 5.9 | > 2 | –15.4 kcal/mol | > 2 | ≤ 0.01 | 0.08 | 0.079 | > 100 | 109 | < 2 | – | – | > 10 | > 10 | > 10 | > 10 | > 10 |
| O=P(O)(O)CP(=O)(O)OC[C@H]1O[C@@H](n2ccc3c(-c4cc(Br)c5ccccc5c4F)nc(Cl)nc32)[C@H](O)[C@@H]1O [7B.26] | 117 | < 2 | 1.67 | 1.1 | > 2 | –15.7 kcal/mol | > 2 | ≤ 0.01 | 0.02 | 0.016 | 71 (≈ 47.3 µg/mL) | 113 | < 2 | – | – | > 10 | > 10 | > 10 | > 10 | > 10 |
| O=P(O)(O)CP(=O)(O)OC[C@H]1O[C@@H](n2ccc3c(-c4ccnc5ccccc45)ncnc32)[C@H](O)[C@@H]1O [4A.17] | – | < 1 | 2.15 | 7.2 | > 2 | –14.3 kcal/mol | > 2 | 0.257 | – | 0.8 | > 100 | 79 | 9 | – | 0.8 | > 10 | > 10 | > 10 | > 10 | > 10 |

Now from value to compound, other results behind:

| Mics (hu) comp remaining 60 min [1] [%] | microsomal CLint at 10 µM [1] [µL/min/mg] | half-life [2, 11] [h] | clearance [2, 12] [mL/min/kg] | half-life at 10 µM (in vitro [3]) [h] | dG_exp, experimental binding free energy [4] | half-life at 10 µM (in vitro [5]) [h] | fraction unbound at 4 h, 100 µM [6, 13] | fraction unbound at 4 h, 100 µM [7, 14] | fraction unbound at 4 h, 100 µM [7, 15] | solubility at 2 h [8] [µM] | Mics (m) comp remaining 60 min [10] [%] | microsomal CLint at 10 µM [10] [µL/min/mg] | clearance ([2]; male, CD-1, mouse, iv, in vivo PK in mice, unit inferred, read-out: clearance) [mL/min/kg] | fraction unbound at 4 h, 100 µM [6, 16] | SMILES | IC50 (HeLa S3) [µM] | IC50 [9] [µM] | IC50 (HepG2) [µM] | IC50 (CCRF-CEM) [µM] | IC50 (HL-60) [µM] |
| --- | --- | --- | --- | --- | --- | --- | --- | --- | --- | --- | --- | --- | --- | --- | --- | --- | --- | --- | --- | --- |
| 99 | < 1 | 2.25 | 1.4 | > 2 | –15.1 kcal/mol | > 2 | 0.023 | 0.23 | 0.235 | 84 (≈ 46.8 µg/mL) | 116 | < 1 | – | – | O=P(O)(O)CP(=O)(O)OC[C@H]1O[C@@H](n2ccc3c(-c4cccc5c4CCCC5)nc(F)nc32)[C@H](O)[C@@H]1O [14D.12] | > 10 | > 10 | > 10 | > 10 | > 10 |
| 104 | < 2 | 0.113 | 11 | > 2 | –15.8 kcal/mol | > 2 | 0.084 | 0.2 | 0.198 | > 100 | 111 | < 2 | – | – | O=P(O)(O)CP(=O)(O)OC[C@H]1O[C@@H](n2ccc3c(-c4ccc5cc(O)ccc5c4)nc(Cl)nc32)[C@H](O)[C@@H]1O [7B.32] | > 10 | > 10 | > 10 | > 10 | > 10 |
| 92 | 3 | 2.78 | 2.3 | > 2 | –13.9 kcal/mol | > 2 | 0.067 | 0.56 | 0.564 | > 100 | 102 | < 1 | – | – | Nc1nc(-c2cccc3ccccc23)c2ccn([C@@H]3O[C@H](COP(=O)(O)CP(=O)(O)O)[C@@H](O)[C@H]3O)c2n1 [11C.6] | > 10 | > 10 | > 10 | > 10 | > 10 |
| 148 | < 2 | 2.43 | 6.7 | > 2 | –15.3 kcal/mol | > 2 | ≤ 0.01 | 0.04 | 0.036 | 89 (≈ 53.8 µg/mL) | 140 | < 2 | – | – | O=P(O)(O)CP(=O)(O)OC[C@H]1O[C@@H](n2ccc3c(-c4ccc5cc(Cl)ccc5c4)nc(Cl)nc32)[C@H](O)[C@@H]1O [7B.27] | > 10 | > 10 | > 10 | > 10 | > 10 |
| 100 | < 1 | 2.3 | 1.3 | > 2 | –14.4 kcal/mol | > 2 | 0.033 | 0.42 | – | 89 (≈ 49.3 µg/mL) | 111 | < 1 | – | – | O=P(O)(O)CP(=O)(O)OC[C@H]1O[C@@H](n2ccc3c(-c4cccc5ccccc45)nc(F)nc32)[C@H](O)[C@@H]1O [14D.6] | > 10 | > 10 | > 10 | > 10 | > 10 |
